Test results from patent publication US11415579B2, “Assay for measuring a rate of reaction between a target and a ligand candidate” (Imperial College Innovations Ltd., priority 2016, dated 2022).

Key:
[1] = molecular target: T1, Cdk2(C177A, F80C) (Homo sapiens, UniProt P24941, C177A/F80C); experiment: Kinetic thiol consumption assay with Cdk2 mutant F80C, incl. kobs versus concentration (Kd, k2); format: binding; design: key to Rate enhancement, Cdk2 F80C: Cdk2 rate constant divided by model-thiol rate constant; conditions: additional mutation C177A; for Rate constant with Cdk2 F80C: Protein: Cdk2, cysteine position F80C, in h^-1
T1 construct: poly-histidine; made in house; host or cells: E. coli
How it was run: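 His-tagged Cdk2(C177A/F80C) from E. coli or model thiol, 5 μM in degassed phosphate buffer pH 8 with TCEP beads, reacted with acrylamide ligands; fluorescence (ex/em 380/470 nm) normalized to DMSO control and fitted to first-order decay for kobs. Kd and k2 obtained from hyperbolic fit of kobs versus ligand concentration.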

[2] = molecular target: T2, human cyclin-dependent kinase 2 (Cdk2) (Homo sapiens, UniProt P24941); experiment: Kinetic thiol consumption assay with wild type Cdk2 (C177); format: binding; design: key to Rate enhancement, Cdk2 WT: k(Cdk2) divided by k(model thiol); Rate constant with Cdk2 (k(Cdk2)): unit not given here; conditions: for Rate constant with Cdk2 (k(Cdk2)): 500 μM ligand, 5 μM thiol, phosphate buffer pH 8; for Rate enhancement, Cdk2 WT: no additional mutations; for Rate constant with Cdk2 WT: Protein: Cdk2, cysteine position WT, in h^-1; for k(Cdk2)/k(Cdk2_mut) rate enhancement: model thiol Cdk2[C177A, F80C, K278C]; for k(Cdk2)/k(GSH) rate enhancement: model thiol glutathione
T2 construct: poly-histidine; made in house; host or cells: E. coli
How it was run: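 Rate enhancement: first-order decay constant with Cdk2 over that with a model thiol. Thiols (5 μM, degassed phosphate buffer pH 8, immobilized TCEP) were incubated with acrylamides at room temperature, and thiol consumption followed by fluorescence at 380/470 nm, normalized to DMSO control. Cdk2 was His-tagged, E. coli-expressed, with one surface cysteine (C177).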

[3] = molecular target: T3, Cdk2(R122C) (C177A) (Homo sapiens, UniProt P24941, C177A/R122C); experiment: Kinetic thiol consumption assay with Cdk2 mutant R122C; format: binding; design: key to Rate enhancement, Cdk2 R122C: rate constant with Cdk2 ÷ rate constant with model thiol (fold); conditions: additional mutation C177A; for Rate constant with Cdk2 R122C: Protein: Cdk2, cysteine position R122C, in h-1
T3 construct: poly-histidine; made in house; host or cells: E. coli
How it was run: (§1)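 Read-out is fluorescence at 380/470 nm, taken after 1 h at room temperature and normalized to a DMSO/thiol-only control over time. Thiol (5 μM Cdk2 mutant or model thiol) was in degassed pH 8 phosphate buffer with 2% v/v TCEP beads. Acrylamide rate constants for Cdk2 were divided by those with model thiol.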

[4] = Kinetic thiol consumption assay with model thiol glutathione; format: physicochemical; design: Rate constant with glutathione (k(GSH)): unit not given here; conditions: for Rate constant with glutathione (k(GSH)): 500 μM ligand, 5 μM thiol, phosphate buffer pH 8; for Rate constant with Glutathione: Protein: Glutathione, cysteine position NA, in h-1
How it was run: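 GSH 5 μM, degassed phosphate buffer pH 8, TCEP beads 2% v/v; acrylamide added; RT, 1 h; fluorescence ex/em 380/470 nm; normalized to DMSO/thiol control; k from first-order exponential decay fit.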

[5] = molecular target: T4, Cdk2(S276C) (C177A) (Homo sapiens, UniProt P24941, C177A/S276C); experiment: Kinetic thiol consumption assay with Cdk2 mutant S276C; format: binding; design: key to Rate enhancement, Cdk2 S276C: rate constant with Cdk2 ÷ rate constant with model thiol (fold); conditions: additional mutation C177A; for Rate constant with Cdk2 S276C: Protein: Cdk2, cysteine position S276C, in h^-1
T4 construct: poly-histidine; made in house; host or cells: E. coli
How it was run: as §1

[6] = molecular target: T5, Cdk2(N272C) (C177A) (Homo sapiens, UniProt P24941, C177A/N272C); experiment: Kinetic thiol consumption assay with Cdk2 mutant N272C; format: binding; design: key to Rate enhancement, Cdk2 N272: rate constant with Cdk2 ÷ rate constant with model thiol (fold); conditions: for Rate enhancement, Cdk2 N272: Cdk2 N272, additional mutation C177A; for Rate constant with Cdk2 N272C: Protein: Cdk2, cysteine position N272C, additional mutation C177A, in h^-1
T5 construct: poly-histidine; made in house; host or cells: E. coli
How it was run: as §1

[7] = molecular target: T6, Cdk2(S181C) (C177A) (Homo sapiens, UniProt P24941, C177A/S181C); experiment: Kinetic thiol consumption assay with Cdk2 mutant S181C; format: binding; design: key to Rate enhancement, Cdk2 S181C: rate constant with Cdk2 ÷ rate constant with model thiol (fold); conditions: additional mutation C177A; for Rate constant with Cdk2 S181C: Protein: Cdk2, cysteine position S181C, in h^-1
T6 construct: poly-histidine; made in house; host or cells: E. coli
How it was run: as §1

[8] = molecular target: T7, Cdk2[C177A, F80C, K278C] (Homo sapiens, UniProt P24941, C177A/F80C/K278C); experiment: Kinetic thiol consumption assay with mutant Cdk2 as model thiol; format: binding; design: unit not given here; conditions: 500 μM ligand, 5 μM thiol, phosphate buffer pH 8
T7 construct: poly-histidine; made in house; host or cells: E. coli
How it was run: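 First-order rate constants were derived by exponential-decay fitting of DMSO/thiol-normalized fluorescence (380/470 nm) over time at room temperature. Thiol was 5 μM E. coli-expressed His-tagged Cdk2 mutant C177A/F80C/K278C in degassed pH 8 phosphate buffer containing 2% v/v TCEP beads.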

[9] = molecular target: T8, Cdk2(H71C) (C177A) (Homo sapiens, UniProt P24941, C177A/H71C); experiment: Kinetic thiol consumption assay with Cdk2 mutant H71C; format: binding; design: key to Rate enhancement, Cdk2 H71C: rate constant with Cdk2 ÷ rate constant with model thiol (fold); conditions: additional mutation C177A; for Rate constant with Cdk2 H71C: Protein: Cdk2, cysteine position H71C, in h^-1
T8 construct: poly-histidine; made in house; host or cells: E. coli
How it was run: as §1

[10] = molecular target: T9, Cdk2(T182C) (C177A) (Homo sapiens, UniProt P24941, C177A/T182C); experiment: Kinetic thiol consumption assay with Cdk2 mutant T182C; format: binding; design: key to Rate enhancement, Cdk2 T182C: rate constant with Cdk2 ÷ rate constant with model thiol (fold); conditions: additional mutation C177A; for Rate constant with Cdk2 T182C: Protein: Cdk2, cysteine position T182C, in h^-1
T9 construct: poly-histidine; made in house; host or cells: E. coli
How it was run: as §1

Row | Compound | Rate enhancement, Cdk2 F80C [1] | Rate constant with Cdk2 F80C [1] | Rate constant with Cdk2 (k(Cdk2)) [2] | Rate enhancement, Cdk2 WT [2] | Rate constant with Cdk2 WT [2] | k(Cdk2)/k(Cdk2_mut) rate enhancement [2] | k(Cdk2)/k(GSH) rate enhancement [2] | Rate enhancement, Cdk2 R122C [3] | Rate constant with glutathione (k(GSH)) [4] | Rate constant with Glutathione [4] | Rate enhancement, Cdk2 S276C [5] | Rate constant with Cdk2 S276C [5] | Rate enhancement, Cdk2 N272 [6] | Rate constant with Cdk2 N272C [6] | Rate enhancement, Cdk2 S181C [7] | Rate constant with Cdk2 S181C [7] | Rate constant with Cdk2[C177A, F80C, K278C] (k(Cdk2_mut)) [8] | Rate enhancement, Cdk2 H71C [9] | Rate enhancement, Cdk2 T182C [10] | Rate constant with Cdk2 T182C [10] | other results
1 | C=CC(=O)N1CCc2cc(-c3cccc(F)c3)ccc21 [CA-042] | 0.4287 | 0.006272 | 0.04257 | 2.91 | 0.04257 | 0.3151 | 5.157 | 0.1215 | 0.00825 | 0.01463 | 0.5636 | 0.008245 | 0.09535 | 0.001395 | 0.3187 | 0.004663 | 0.1351 | 0.5064 | 5.547 | 0.08115 | Rate constant with Cdk2 R122C [3]: 0.001778; Rate constant with Cdk2 H71C [9]: 0.007409
2 | C=CC(=O)NCCN1CCOCC1 [BN-346] | 0.189 | 0.0008792 | 0.00428 | 1.185 | 0.005514 | 2.921 | 1.429 | 0 | 0.00299 | 0.004652 | 0.2004 | 0.0009323 | 0.4286 | 0.001994 | 0.233 | 0.001084 | 0.00146 | 0.09555 | 0.1853 | 0.000862 | Rate constant with Cdk2 H71C [9]: 0.0004445
3 | C=CC(=O)N1CCC(NC(=O)C2CCC2)C1 (stereo not drawn) [CA-088] | 0.1205 | 0.002347 | 0.00595 | 0.3054 | 0.005947 | 3.366 | 0.4399 | 0.4684 | 0.01352 | 0.01947 | 0.4395 | 0.008557 | 0.5609 | 0.01092 | 0.1904 | 0.003708 | 0.00177 | 0 | 0.9096 | 0.01771 | Rate constant with Cdk2 R122C [3]: 0.009119
4 | C=CC(=O)Nc1ccc2c(c1)OC1(CCCC1)O2 [CA-054] | 1.482 | 0.006411 | 0.00267 | 0.6163 | 0.002666 | 0.0662 | 0.614 | 0.4198 | 0.00434 | 0.004326 | 0.9498 | 0.004109 | 1.248 | 0.005397 | 0.4697 | 0.002032 | 0.04027 | 1.023 | 1.059 | 0.004582 | Rate constant with Cdk2 R122C [3]: 0.001816; Rate constant with Cdk2 H71C [9]: 0.004426
5 | C=CC(=O)N1CCN(c2cc(N3CCOCC3)ncn2)CC1 [CA-179] | 0.3927 | 0.002671 | 0.0076 | 1.117 | 0.007599 | 1.056 | 1.112 | 0.6453 | 0.00683 | 0.006802 | 1.169 | 0.007953 | 0.4 | 0.002721 | 2.608 | 0.01774 | 0.00719 | 1.062 | 7.042 | 0.0479 | Rate constant with Cdk2 R122C [3]: 0.004389; Rate constant with Cdk2 H71C [9]: 0.007227
